19 compounds from patent publication US6417199B1, “3-benzyl-benzothiophenes” (Eli Lilly and Company, priority 1995, dated 2002) can be followed below.

Each structure is given as a SMILES string.

One test deals with Serum Cholesterol. Kind of test: Serum cholesterol in ovariectomized rat post-menopausal model. It counts as in vivo, Sprague Dawley rats. Conditions: ovariectomized rats, dosed orally daily for 4 days; for ED50: Rattus norvegicus, po, 96 h. The method, then:
In the examples illustrating the methods, a post-menopausal model was used in which effects of different treatments upon circulating lipids were determined.
Seventy-five day old female Sprague Dawley rats (weight range of 200 to 225 g) are obtained from Charles River Laboratories (Portage, Mich.). The animals are either bilaterally ovariectomized (OVX) or exposed to a Sham surgical procedure at Charles River Laboratories, and then shipped after one week. Upon arrival, they are housed in metal hanging cages in groups of 3 or 4 per cage and had ad libitum access to food (calcium content approximately 0.5%) and water for one week. Room temperature is maintained at 22.2°±1.7° C. with a minimum relative humidity of 40%. The photoperiod in the room was 12 hours light and 12 hours dark.
Dosing Reaimen Tissue Collection. After a one week acclimation period (therefore, two weeks post-OVX) daily dosing with test compound is initiated. 17α-ethynyl estradiol or the test compound is given orally, unless otherwise stated, as a suspension in 1% carboxymethylcellulose or dissolved in 20% cyclodextrin. Animals are dosed daily for 4 days. Following the dosing regimen, animals are weighed and anesthetized with a ketamine: xylazine (2:1, V:V) mixture and a blood sample is collected by cardiac puncture. The animals are then sacrificed by asphyxiation with CO2, the uterus is removed through a midline incision, and a wet uterine weight is determined.
Cholesterol Analysis. Blood samples are allowed to clot at room temperature for 2 hours, and serum is obtained following centrifugation for 10 minutes at 3000 rpm. Serum cholesterol is determined using a Boehringer Mannheim Diagnostics high performance cholesterol assay. Briefly the cholesterol is oxidized to cholest-4-en-3-one and hydrogen peroxide. The hydrogen peroxide is then reacted with phenol and 4-aminophenazone in the presence of peroxidase to produce a p-quinone imine dye, which is read spectrophotemetrically at 500 nm. Cholesterol concentration is then calculated against a standard curve. The entire assay is automated using a Biomek Automated Workstation.
Data presented in Table 1 below show results when rats were treated with certain compounds of the present invention. The compounds of the present invention generally reduce serum cholesterol compared to the ovariectomized control animals.

Test [1] deals with MCF-7 breast adenocarcinoma cells. The test can be described thus: MCF-7 Proliferation Assay. The test is classed as cell-based. Conditions: Homo sapiens, MCF7; MCF-7 cells, 48 hours with drug, tritiated thymidine incorporation; read-out: ED50 (the source's name). The method, then:
MCF-7 breast adenocarcinoma cells (ATCC HTB 22) were maintained in MEM (minimal essential medium, phenol red-free, Sigma, St. Louis, Mo.) supplimented with 10% fetal bovine serum (FBS) (V/V), L-glutamine (2 mM), sodium pyruvate (1 mM), HEPES {(N-[2-hydroxyethyl]piperazine-N′-[2-ethanesulfonic acid]10 mM}, non-essential amino acids and bovine insulin (1 ug/mL) (maintenance medium). Ten days prior to assay, MCF-7 cells were switched to maintenance medium supplemented with 10% dextran coated charcoal stripped fetal bovine serum (DCC-FBS) assay medium) in place of 10% FBS to deplete internal stores of steroids. MCF-7 cells were removed from maintenance flasks using cell dissociation medium (Ca++/Mg++ free HBSS (phenol red-free) supplemented with 10 mM HEPES and 2 mM EDTA). Cells were say medium and adjusted to 80,000 cells/mL. Approximately 100 μL (8,000 cells) were added to flat-bottom microculture wells (Costar 3596) and incubated at 37° C. in a 5% CO2 humidified incubator for 48 hours to allow for cell adherence and equilbration after transfer. Serial dilutions of drugs or DSMO as a diluent control were prepared in assay medium and 50 μL transferred to triplicate microcultures followed by 50 μL assay medium for a final volume of 200 μL. After an additional 48 hours at 37° C. in a 5% CO2 humidified incubator, microcultures were pulsed with tritiated thymidine (1 uCi/well) for 4 hours. Cultures were terminated by freezing at −70° C. for 24 hours followed by thawing and harvesting of microcultures using a Skatron Semiautomatic Cell Harvester. Samples were counted by liquid scintillation using a Wallac BetaPlace β counter. Results in Table 2 below show the ED50 for certain compounds of the present invention.

As a reminder, the ED50 is the dose that gives a 50% effect, or the effect in half of the subjects. Low readings indicate greater potency, high ones weaker potency. `CCCCOC(c1ccc(OCCN2CCCCC2)cc1)c1c(-c2ccc(O)cc2)sc2cc(O)ccc12` (centres unmarked) [Example 5] displayed an ED50 with Serum Cholesterol of 2.5 mg/kg. Besides, the EC50 in test [1] stood at 1.5 nM.

`CCCOC(c1ccc(OCCN2CCCCC2)cc1)c1c(-c2ccc(O)cc2)sc2cc(O)ccc12` (centres unmarked) [Example 3] displayed an ED50 with Serum Cholesterol of 10 mg/kg. The EC50 in test [1] was found to be 2 nM.

In the test on Serum Cholesterol, `CCSC(c1ccc(OCCN2CCCCC2)cc1)c1c(-c2ccc(O)cc2)sc2cc(O)ccc12` (centres unmarked) [Example 10] gave an ED50 of 1.7 mg/kg. Also, the EC50 in test [1] turned out to be 1.2 nM.

For `NC(c1ccc(OCCN2CCCCC2)cc1)c1c(-c2ccc(O)cc2)sc2cc(O)ccc12` (centres unmarked) [Example 14], the 50% effect level in the test with Serum Cholesterol (ED50) was put at a dose of 5.7 mg/kg. In addition, the EC50 in test [1] stood at 6 nM.

In the test with Serum Cholesterol, `Oc1ccc(C2Sc3cc(O)ccc3C2C(OCc2ccccc2)c2ccc(OCCN3CCCCC3)cc2)cc1` (centres unmarked) [Example 6] displayed an ED50 of 10 mg/kg. Moreover, in test [1], the EC50 worked out at 0.5 nM.

`CN(C)C(c1ccc(OCCN2CCCCC2)cc1)c1c(-c2ccc(O)cc2)sc2cc(O)ccc12` (centres unmarked) [Example 11] yielded an ED50 with Serum Cholesterol of 0.1 mg/kg. Further, the EC50 in test [1] came to 20 nM.

With `CNC(c1ccc(OCCN2CCCCC2)cc1)c1c(-c2ccc(O)cc2)sc2cc(O)ccc12` (centres unmarked) [Example 12], the 50% effect level in the test on Serum Cholesterol (ED50) was put at a dose of 0.8 mg/kg. Moreover, in test [1], the EC50 worked out at 4 nM.

As for `COC(c1ccc(OCCN2CCCCC2)cc1)c1c(-c2ccc(O)cc2)sc2cc(O)ccc12` (centres unmarked) [Example 1], the ED50 in the test on Serum Cholesterol was determined as 3.5 mg/kg. Moreover, the EC50 in test [1] stood at 0.8 nM.

In turn, `N#CCCOC(c1ccc(OCCN2CCCCC2)cc1)c1c(-c2ccc(O)cc2)sc2cc(O)ccc12` (centres unmarked) [Example 7] had an ED50 in the test with Serum Cholesterol of 2.4 mg/kg. In addition, the EC50 in test [1] amounted to 7 nM.

Turning to `Oc1ccc(-c2sc3cc(O)ccc3c2C(c2ccc(OCCN3CCCCC3)cc2)N2CCCC2)cc1` (centres unmarked) [Example 16], in the test on Serum Cholesterol, the ED50 is 10 mg/kg. Moreover, the EC50 in test [1] is 15 nM.

As for `CC(C)OC(c1ccc(OCCN2CCCCC2)cc1)c1c(-c2ccc(O)cc2)sc2cc(O)ccc12` (centres unmarked) [Example 4], it took a dose of 4.1 mg/kg to reach the 50% effect level in the test with Serum Cholesterol (ED50). For the same compound, the EC50 in test [1] came out at 10 nM.

Take `CCN(CC)C(c1ccc(OCCN2CCCCC2)cc1)c1c(-c2ccc(O)cc2)sc2cc(O)ccc12` (centres unmarked) [Example 15]: it took a dose of 3.8 mg/kg to reach the 50% effect level in the test on Serum Cholesterol (ED50). Further, the EC50 in test [1] was determined as 7 nM.

Take `OCCOC(c1ccc(OCCN2CCCCC2)cc1)c1c(-c2ccc(O)cc2)sc2cc(O)ccc12` (centres unmarked) [Example 8]: the ED50 in the test with Serum Cholesterol stood at 2.9 mg/kg. Also, in test [1], the EC50 amounted to 20 nM.

In the test with Serum Cholesterol, `Oc1ccc(-c2sc3cc(O)ccc3c2C(c2ccc(OCCN3CCCCC3)cc2)N2CCCCCC2)cc1` (centres unmarked) [Example 17] showed a median effective dose (ED50) of 10 mg/kg. Besides, in test [1], the EC50 worked out at 30 nM.

For the compound `OCCNC(c1ccc(OCCN2CCCCC2)cc1)c1c(-c2ccc(O)cc2)sc2cc(O)ccc12` (centres unmarked) [Example 18], in the test with Serum Cholesterol, the “Serum Cholesterol ED50 (mg/kg)” value was “N.A. at 10.0;”. Further, the EC50 in test [1] was determined as 90 nM.

Turning to `Oc1ccc(-c2sc3cc(O)ccc3c2C(NN2CCCCC2)c2ccc(OCCN3CCCCC3)cc2)cc1` (centres unmarked) [Example 20], in the test with Serum Cholesterol, the 50% effective dose (ED50) is 10 mg/kg. The EC50 in test [1] was 7 nM.

For `CSC(c1ccc(OCCN2CCCCC2)cc1)c1c(-c2ccc(O)cc2)sc2cc(O)ccc12` (centres unmarked) [Example 9], the ED50 in the test with Serum Cholesterol came out at 5.1 mg/kg. Moreover, the EC50 in test [1] was 3 nM.

In the case of `CCOC(c1ccc(OCCN2CCCCC2)cc1)c1c(-c2ccc(O)cc2)sc2cc(O)ccc12` (centres unmarked) [Example 2], in the test on Serum Cholesterol, the ED50 came to 10 mg/kg. The EC50 in test [1] turned out to be 3 nM.

In the test on Serum Cholesterol, `N#CC(c1ccc(OCCN2CCCCC2)cc1)c1c(-c2ccc(O)cc2)sc2cc(O)ccc12` (centres unmarked) [Example 13] displayed a 50% effective dose (ED50) of 0.8 mg/kg. In addition, the EC50 in test [1] was 0.8 nM.
